Data set [1] addresses recombinant CYP4F2 (rCYP4F2) (Homo sapiens (Human), UniProt P78329). Description: Inhibition of 20-HETE production by recombinant CYP4F2. It is filed as biochemical. To be noted: read-out: rCYP4F2 (% inh @ 100 nM). Here is the method:
(§1) Experimental principle: The inhibitory activity of 20-HETE production is evaluated by testing the inhibitory effects of the compound on human liver microsomes (HLM), rat liver microsomes (RLM), mouse liver microsomes (MLM), or […] CYP4 subtype enzymes (CYP4F2). This assay employs HLM, RLM, or MLM along with recombinant CYP4F2 (rCYP4F2) and recombinant CYP4A11 (rCYP4A11), which are […] CYP4 subtype enzymes, to detect the effects of the test compound at different concentrations on the metabolic rate of enzyme-specific substrates, to determine the inhibitory effects of the test compound on CYP enzymes in HLM, RLM, or MLM.
(§2) Experimental methods: Dissolve the test compound in DMSO, and subsequently dilute it with an acetonitrile and DMSO mixture (3:1). Add 2 μl of varying concentrations of the test compound and 100 μl of potassium phosphate buffer containing either liver microsomes or recombinant enzymes to a 96-well plate. After mixing well, transfer 30 μl to another well (in duplicate), add 15 μl of 400 μM substrate solution, and mix well again. Preheat at 37° C. for 10 minutes, and then add 15 μl of 6 mM NADPH and incubate at 37° C. for 25 minutes. After 25 minutes, add 160 μl of acetonitrile solution (containing 0.1 μg/ml internal standard) to stop the reaction. Mix well, centrifuge at 3500 g for 15 minutes, and then analyze the supernatant using LC-MS/MS.
(§3) Plot the compound concentration on the x-axis and the inhibition rate on the y-axis to draw the curve. Use GraphPad Prism 5 software to fit the curve and calculate the IC50. The formula is Y=Bottom+(Top−Bottom)/(1+10^((Log IC50−X)×HillSlope)). X represents the logarithmic concentration of the inhibitor, and Y represents the relative enzyme activity at a given inhibitor concentration (relative to the condition without the inhibitor).
(§4) Calculate the inhibition percentages at concentrations of 1000 nM, 500 nM, or 100 nM as well as the half-maximal inhibitory concentration (IC50) of the test compound from the above experiment.

Data set [2] deals with CYP enzymes in human liver microsomes (HLM). Description: Inhibition of 20-HETE production in human liver microsomes (HLM). Format: biochemical. The gist of the method: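 LC-MS/MS read-out of 20-HETE formation, expressed as activity relative to no-inhibitor control and fitted to a Hill equation for IC50; percent inhibition also given at 1000, 500 or 100 nM. Enzyme sources: recombinant CYP4F2, recombinant CYP4A11, or human or mouse liver microsomes. Each is combined with compound and substrate (400 μM solution) and warmed 10 min at 37 °C, then incubated 25 min at 37 °C after adding NADPH (6 mM solution).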

The subject of data set [3] is CYP enzymes in rat liver microsomes (RLM). Description: Inhibition of 20-HETE production in rat liver microsomes (RLM). Format: biochemical. In a few lines: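 Test compounds were dissolved in DMSO, diluted in acetonitrile/DMSO (3:1), and 2 μl was mixed with 100 μl potassium phosphate buffer containing rat liver microsomes in a 96-well plate. Duplicate 30 μl aliquots received 15 μl of 400 μM substrate, were preheated at 37° C. for 10 minutes, then started with 15 μl of 6 mM NADPH for 25 minutes. LC-MS/MS measured 20-HETE formation.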
(In general: Liver microsomes are a subcellular fraction often used to study metabolism.)

In data set [4] the target is recombinant CYP4A11 (rCYP4A11) (Homo sapiens (Human), UniProt Q02928). Description: Inhibition of 20-HETE production by recombinant CYP4A11. Format: biochemical. To be noted: read-out: rCYP4A11 (% inh @ 100 nM). The protocol: as §1, §2, §3, §4
Data set [5] is described as follows: Pharmacokinetic (PK) experiment, oral administration in rats. It is filed as in vivo, Male SD rats. To be noted: 20 mg/kg; for AUC(0-inf) / Cmax / Tmax / half-life / AUC(0-t): male, SD, rat, plasma; for AUC(0-t): read-out: AUC0-24. Here is the method: Male SD rats, weighing 180-250 grams, were fasted overnight before testing. The test compound was dissolved in 30% sulfobutylether-β-cyclodextrin and administered orally at a dose of 20 mg/kg. Blood was collected from the tail vein at 15 minutes, 30 minutes, and 1, 2, 4, 6, 8, and 24 hours after administration. Approximately 0.3 ml of blood was collected at each time point, placed in a centrifuge tube containing K2-EDTA, and centrifuged (2000 g for 10 minutes at 4° C.) to take the plasma, which was then stored in an ultra-low temperature freezer at −70° C. or below. A 50 μL plasma sample was mixed with 135 μL of acetonitrile (containing 0.5 μg/mL internal standard) and vortexed for protein precipitation. After centrifugation, the supernatant was taken for LC-MS/MS analysis.

Data set [6] has as its system CYP enzymes in mouse liver microsomes (MLM). Description: Inhibition of 20-HETE production in mouse liver microsomes (MLM). It is filed as biochemical. Here is the method: as §1, §2, §3, §4

Here are results for 16 compounds from US20250034116A1, “1,4-DIHETEROCYCLIC SUBSTITUTED AROMATIC RING OR AROMATIC HETEROCYCLIC COMPOUND AND USE THEREOF” (BeBetter Med Inc., priority 2022, published 2025).

Each structure is given as a SMILES string.

recombinant CYP4F2 (rCYP4F2), sequence (P78329 5-520): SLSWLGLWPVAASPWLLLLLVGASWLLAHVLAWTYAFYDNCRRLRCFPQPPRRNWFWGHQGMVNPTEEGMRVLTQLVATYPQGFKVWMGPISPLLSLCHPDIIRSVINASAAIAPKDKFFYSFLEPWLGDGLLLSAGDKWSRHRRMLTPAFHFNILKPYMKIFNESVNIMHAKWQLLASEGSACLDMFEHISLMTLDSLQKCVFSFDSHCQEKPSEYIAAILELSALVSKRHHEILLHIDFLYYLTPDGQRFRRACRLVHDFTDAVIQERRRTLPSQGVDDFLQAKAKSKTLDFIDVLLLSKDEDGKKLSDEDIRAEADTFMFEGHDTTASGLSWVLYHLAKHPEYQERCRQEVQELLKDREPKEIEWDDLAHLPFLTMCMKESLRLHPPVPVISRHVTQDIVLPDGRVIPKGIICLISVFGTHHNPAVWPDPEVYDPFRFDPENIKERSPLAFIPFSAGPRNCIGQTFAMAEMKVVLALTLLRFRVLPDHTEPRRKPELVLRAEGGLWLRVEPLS
recombinant CYP4A11 (rCYP4A11), sequence (Q02928 5-519): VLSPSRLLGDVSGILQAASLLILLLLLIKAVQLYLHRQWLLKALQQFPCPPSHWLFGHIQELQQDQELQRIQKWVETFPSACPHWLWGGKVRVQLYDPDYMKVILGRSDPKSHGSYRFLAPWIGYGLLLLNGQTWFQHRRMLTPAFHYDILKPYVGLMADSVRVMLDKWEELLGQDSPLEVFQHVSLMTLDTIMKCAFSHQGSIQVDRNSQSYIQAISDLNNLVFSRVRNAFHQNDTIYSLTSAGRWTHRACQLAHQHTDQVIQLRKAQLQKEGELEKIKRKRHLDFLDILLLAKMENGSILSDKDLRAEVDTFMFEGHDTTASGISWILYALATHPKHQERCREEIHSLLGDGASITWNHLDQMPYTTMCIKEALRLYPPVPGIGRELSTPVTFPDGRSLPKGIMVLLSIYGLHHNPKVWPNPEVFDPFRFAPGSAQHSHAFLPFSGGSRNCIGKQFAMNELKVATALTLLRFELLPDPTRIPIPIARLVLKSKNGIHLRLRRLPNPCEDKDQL

On to `O=C1CCCN1CC1CCN(c2ccc(-c3cn[nH]c3)c(F)c2)CC1` [Compound 3, 1-((1-(3-fluoro-4-(1H-pyrazol-4-yl)phenyl)piperidin-4-yl)methyl)pyrrolidin-2-one], for which the inhibition at 0.1 µM in data set [1] amounted to 64.2%; in data set [4], 27.8%. Moreover, the “HLM (% inh @ 500 nM)” value in data set [2] worked out at 75.59%. In data set [3], this compound returned a half-inhibitory concentration (IC50) of 322 nM.
For the compound `O=C1CCCN1CC1CCN(c2ccc(-c3cn[nH]c3)cc2Cl)CC1` [Compound 11, 1-((1-(2-chloro-4-(1H-pyrazol-4-yl)phenyl)piperidin-4-yl)methyl)pyrrolidin-2-one], the inhibition at 0.1 µM amounted to 59.7% in data set [1] and 46.3% in data set [4]. Also, the “HLM (% inh @ 500 nM)” value in data set [2] is reported as 80.98%. Inhibition in data set [3] was half-maximal at 157 nM (IC50).
Take `O=C1CCCN1CC1CCN(c2ccc(-c3cn[nH]c3)cc2C(F)F)CC1` [Compound 19, 1-((1-(2-(difluoromethyl)-4-(1H-pyrazol-4-yl)phenyl)piperidin-4-yl)methyl)pyrrolidin-2-one]: the inhibition at 0.1 µM in data set [1] was determined as 61.4%; in data set [4], 58.7%. Further, the “HLM (% inh @ 500 nM)” value in data set [2] amounted to 87.01%. In data set [3], this compound showed an IC50 of 434 nM. In data set [3], the “RLM (% inh @ 500 nM)” value came out at 59.42%.
With `O=C1CCCN1CC1CCN(c2ccc(-c3ccno3)cc2)CC1` [Compound 34, 1-((1-(4-(isoxazol-5-yl)phenyl)piperidin-4-yl)methyl)pyrrolidin-2-one], the inhibition at 0.1 µM in data set [1] was found to be 49.7%; in data set [4], 1.59%. In addition, the “HLM (% inh @ 500 nM)” value in data set [2] is 71.06%. In data set [3], the “RLM (% inh @ 500 nM)” value amounted to 83.75%.
Consider `O=C(NCC1CCN(c2ccc(-c3cn[nH]c3)cc2)CC1)c1ccccc1` [Compound 47, N-((1-(4-(1H-pyrazol-4-yl)phenyl)piperidin-4-yl)methyl)benzamide], for which the figures for the inhibition at 0.1 µM in data set [1] and in data set [4] were 66% and 41.1%, respectively. The compound also registered an IC50 in data set [2] of 42.7 nM. The “RLM (% inh @ 500 nM)” value in data set [3] stood at 35.64%.
Regarding `O=C(C1CCN(c2ccc(-c3cn[nH]c3)cc2)CC1)N1CCCC1` [Compound 49, (1-(4-(1H-pyrazol-4-yl)phenyl)piperidin-4-yl)(pyrrolidin-1-yl) methanone], the inhibition at 0.1 µM in data set [1] stood at 42.4%. In addition, the “HLM (% inh @ 500 nM)” value in data set [2] was 79.80%. Also, in data set [3], half-maximal inhibition (IC50) was put at 521 nM and the “RLM (% inh @ 500 nM)” value was found to be 44.31%. The inhibition at 0.1 µM in data set [4] worked out at 23.3%.
With `O=C(NC1CCCCC1)C1CCN(c2ccc(-c3cn[nH]c3)cc2)CC1` [Compound 57, 1-(4-(1H-pyrazol-4-yl)phenyl)-N-cyclohexylpiperidine-4-carboxamide], the inhibition at 0.1 µM was found to be 61.7% in data set [1] and 8.98% in data set [4]. Further, the “HLM (% inh @ 500 nM)” value in data set [2] is on record as 81.76%. Moreover, the “RLM (% inh @ 500 nM)” value in data set [3] is reported as 49.97%.
For `O=C(N1CC=C(c2ccc(-c3cn[nH]c3)c(F)c2F)CC1)N1CCCC1` [Compound 91, (4-(2,3-difluoro-4-(1H-pyrazol-4-yl)phenyl)-3,6-dihydropyridin-1(2H)-yl)(pyrrolidin-1-yl) methanone], in data set [5], the “absorption and blood exposure after oral administration (in words)” value was “well absorbed and exhibit high blood exposure”; the AUC(0-inf) amounted to 107000 ng·h/mL; the Cmax was found to be 11400 ng/mL; the Tmax is 2.5 h. In data set [5], the half-life was 2.22 h and the AUC(0-t) is 107000 ng·h/mL. For the same compound, the IC50 in data set [6] came to 735 nM. In data set [2], the 50% inhibitory concentration (IC50) is 19.1 nM and the “HLM (% inh @ 500 nM)” value is 96.45%. The compound also gave a half-maximal inhibitory concentration (IC50) in data set [3] of 9.09 nM.
For the compound `C[C@H]1CN(c2ccc(-c3cn[nH]c3)c(F)c2F)CCN1C(=O)N1CCCC1` [Compound 105, (S)-(4-(2,3-difluoro-4-(1H-pyrazol-4-yl)phenyl)-2-methylpiperazin-1-yl)(pyrrolidin-1-yl) methanone], the IC50 in data set [6] is 1520 nM; in data set [2], 11.1 nM; in data set [3] it was 9.78 nM. In data set [2], the “HLM (% inh @ 500 nM)” value is given as 79.54%.
For the compound `O=C(N1CCC(c2ccc(-c3cn[nH]c3)cc2F)CC1)N1CC2CCCC2C1` (centres unmarked) [Compound 106, (4-(2-fluoro-4-(1H-pyrazol-4-yl)phenyl)piperidin-1-yl)(hexahydrocyclopenta[c]pyrrol-2 (1H)-yl) methanone], the IC50 in data set [6] stood at 2810 nM; in data set [2] it was 23.2 nM; in data set [3] it was 10.7 nM. In addition, the “HLM (% inh @ 500 nM)” value in data set [2] worked out at 91.17%. Besides, in data set [3], the “RLM (% inh @ 500 nM)” value turned out to be 84.57%.
With `O=C1CCC(C(=O)N2CCC(c3ccc(-c4cn[nH]c4)c(F)c3F)CC2)CC1` [Compound 107, 4-(4-(2,3-difluoro-4-(1H-pyrazol-4-yl)phenyl)piperidine-1-carbonyl)cyclohexane-1-one], the IC50 in data set [6] is 720 nM; in data set [2], 23.6 nM; in data set [3], 33.4 nM. Besides, the “RLM (% inh @ 500 nM)” value in data set [3] is given as 69.55%.
With `O=C(N1CCC(c2ccc(-c3cn[nH]c3)c(F)c2F)CC1)C1(O)CCCCC1` [Compound 110, (4-(2,3-difluoro-4-(1H-pyrazol-4-yl)phenyl)piperidin-1-yl)(1-hydroxycyclohexyl) methanone], the IC50 in data set [6] was determined as 174 nM. Further, in data set [2], inhibition was half-maximal at 16.1 nM (IC50) and the “HLM (% inh @ 500 nM)” value is on record as 92.92%. In data set [3], the IC50 was 29.5 nM and the “RLM (% inh @ 500 nM)” value worked out at 77.32%.
`O=C(C1CCCC1)N1CCC2(CCN(c3ccc(-c4cn[nH]c4)cc3F)C2)C1` (centres unmarked) [Compound 124, cyclopentyl(7-(2-fluoro-4-(1H-pyrazol-4-yl)phenyl)-2,7-diazaspiro[4.4]nonan-2-yl) methanone] came in with a half-maximal inhibitory concentration (IC50) in data set [6] of 1850 nM. In addition, in data set [2], the midpoint of inhibition, the IC50, lay at 32.8 nM and the “HLM (% inh @ 500 nM)” value is 88.29%. In data set [3], the “RLM (% inh @ 500 nM)” value turned out to be 74.61%.
With `O=C(N1CCCC1)N1CC2CN(c3ccc(-c4cn[nH]c4)c(F)c3F)CC2C1` (centres unmarked) [Compound 127, (5-(2,3-difluoro-4-(1H-pyrazol-4-yl)phenyl)hexahydropyrrolo[3,4-c]pyrrol-2 (1H)-yl)(pyrrolidin-1-yl) methanone], the IC50 in data set [6] was found to be 1900 nM; in data set [2] it was 18.3 nM; in data set [3], 17.9 nM. In data set [3], the “RLM (% inh @ 500 nM)” value amounted to 74.10%.
As for `CC1CN(c2ccc(-c3cn[nH]c3)cc2F)CC(C)N1C(=O)N1CCCC1` (centres unmarked) [Compound 130, (4-(2-fluoro-4-(1H-pyrazol-4-yl)phenyl)-2,6-dimethylpiperazin-1-yl)(pyrrolidin-1-yl) methanone], the concentration for half-maximal inhibition (IC50) was 414 nM in data set [6], 7.62 nM in data set [2] and 22.8 nM in data set [3].
On to `O=S1(=O)CCCCN1CC1CCN(c2ccc(-c3cn[nH]c3)cc2F)CC1` [Compound 163, 2-((1-(2-fluoro-4-(1H-pyrazol-4-yl)phenyl)piperidin-4-yl)methyl)-1,2-thiazinane 1,1-dioxide], for which, in data set [5], the “absorption and blood exposure after oral administration (in words)” value was “well absorbed and exhibit high blood exposure”; the AUC(0-inf) worked out at 44700 ng·h/mL; the highest level (Cmax) was 6680 ng/mL; the Tmax is 1.67 h. Moreover, in data set [5], the half-life was 4.03 h and the AUC(0-t) was found to be 44100 ng·h/mL. For the same compound, the IC50 in data set [6] turned out to be 1010 nM. In data set [2], the IC50 was 9.53 nM and the “HLM (% inh @ 500 nM)” value was determined as 90.91%. For the same compound, in data set [3], the midpoint of inhibition, the IC50, lay at 222 nM and the “RLM (% inh @ 500 nM)” value came out at 64.17%.

One may read the IC50 as the point on the concentration scale where inhibition reaches its midpoint. Low readings indicate greater potency, high ones weaker potency. As usually defined, the AUC(0-inf) is total exposure, with the tail of the curve extrapolated. Lower therefore signals less exposure. As a reminder, the Cmax is the peak of the concentration-time curve. In general, Tmax refers to the time from dosing to the highest level. The term half-life denotes the time in which the quantity being followed falls by half. Read a high half-life as slow loss.
